Measured values as given in the NIST ThermoML archive (doi:10.1021/acs.jced.9b00668).

Assays:
[1] = Liquid; for mass density: 298.15 K, 101.3 kPa, Vibrating tube method; for vapor or sublimation pressure: Ebulliometric method (Recirculating still)
[2] = refractive index (Na D-line) (dimensionless); conditions: 298.15 K; 101.3 kPa; Liquid; Standard Abbe refractometry
[3] = xn = mol fraction of the nth substance listed; conditions: 298.15 K, 101.3 kPa, Liquid, Vibrating tube method

CC(C)CC(C)(C)C [2,2,4-trimethylpentane]
Conditions	mass density [kg/m3]	refractive index
[1]	687.8	–
[2]	–	1.38905

[1]
Conditions	vapor or sublimation pressure [kPa]
371.91 K	100
504.65 K	1500

CC(C)CC(C)(C)C [2,2,4-trimethylpentane] + CCOC(C)=O
[3]
Conditions	mass density [kg/m3]
x2 = 0	687.8
x2 = 0.0627	694.4
x2 = 0.1027	699
x2 = 0.1524	704.9
x2 = 0.2008	711.1
x2 = 0.272	721
x2 = 0.3528	733.3
x2 = 0.386	738.7
x2 = 0.4349	747.1
x2 = 0.4568	751
x2 = 0.5071	760.4
x2 = 0.5362	766.1
x2 = 0.6042	780.2
x2 = 0.7014	802.6
x2 = 0.7603	817.7
x2 = 0.8488	842.7
x2 = 0.8968	857.9
x2 = 0.9273	868.1
x2 = 0.9465	874.7

CC(C)CC(C)(C)C [2,2,4-trimethylpentane] + COC(C)=O
Conditions	mass density [kg/m3]
[3], x2 = 0	687.8

CCOC(C)=O [ethyl acetate]
Conditions	mass density [kg/m3]	refractive index
[1]	894.4	–
[2]	–	1.36981

[1]
Conditions	vapor or sublimation pressure [kPa]
350.19 K	100
462.75 K	1500

CCOC(C)=O [ethyl acetate] + CC(C)CC(C)(C)C
Conditions	mass density [kg/m3]
[3], x1 = 1	894.4

CCOC(C)=O [ethyl acetate] + CCCCCCC
[3]
Conditions	mass density [kg/m3]
x1 = 0.0642	687.5
x1 = 0.071	688.3
x1 = 0.125	695.2
x1 = 0.1274	695.8
x1 = 0.1932	705.1
x1 = 0.2136	708.2
x1 = 0.3294	726.7
x1 = 0.3874	736.7
x1 = 0.4593	750.2
x1 = 0.5966	778.8
x1 = 0.6582	793.2
x1 = 0.6841	799.3
x1 = 0.7001	803.7
x1 = 0.7346	812.6
x1 = 0.8029	830.8
x1 = 0.8272	837.6
x1 = 0.8471	843.6
x1 = 0.9069	862.1
x1 = 0.9631	880.7
x1 = 1	894.4

CCCCCCC [heptane]
Conditions	mass density [kg/m3]	refractive index
[1]	679.7	–
[2]	–	1.38527

Conditions	vapor or sublimation pressure [kPa]
[1], 498.65 K	1500

CCCCCCC [heptane] + CCOC(C)=O
Conditions	mass density [kg/m3]
[3], x2 = 0	679.7

CCCCCCC [heptane] + COC(C)=O
Conditions	mass density [kg/m3]
[3], x2 = 0	679.7

COC(C)=O [methyl ethanoate]
Conditions	mass density [kg/m3]	refractive index
[1]	927.1	–
[2]	–	1.35875

[1]
Conditions	vapor or sublimation pressure [kPa]
329.99 K	100
436.08 K	1500

COC(C)=O [methyl ethanoate] + CC(C)CC(C)(C)C
[3]
Conditions	mass density [kg/m3]
x1 = 0.0646	693.5
x1 = 0.0822	695.3
x1 = 0.0859	695.7
x1 = 0.0992	697
x1 = 0.1566	703.6
x1 = 0.1941	707.9
x1 = 0.208	709.7
x1 = 0.224	711.7
x1 = 0.2636	717.1
x1 = 0.2688	717.7
x1 = 0.2957	721.6
x1 = 0.3211	725.4
x1 = 0.3319	727
x1 = 0.3956	737.4
x1 = 0.5015	757.3
x1 = 0.578	774
x1 = 0.5792	774.3
x1 = 0.6528	792.8
x1 = 0.6958	804.5
x1 = 0.7268	813.9
x1 = 0.7611	824.8
x1 = 0.7834	832.2
x1 = 0.8161	843.6
x1 = 0.8466	855.3
x1 = 0.848	855.8
x1 = 0.8628	861.6
x1 = 0.8632	861.9
x1 = 0.8889	872.5
x1 = 0.9179	885.5
x1 = 0.9388	895.1
x1 = 0.9406	895.7
x1 = 0.9456	898.3
x1 = 0.9574	904.3
x1 = 1	927.1

COC(C)=O [methyl ethanoate] + CCCCCCC
[3]
Conditions	mass density [kg/m3]
x1 = 0.0579	685.5
x1 = 0.0789	687.8
x1 = 0.0926	689.7
x1 = 0.1276	694.1
x1 = 0.1562	697.4
x1 = 0.1662	698.8
x1 = 0.1998	703.2
x1 = 0.2413	709.3
x1 = 0.2652	712.7
x1 = 0.2914	716.8
x1 = 0.3583	728.4
x1 = 0.4171	739
x1 = 0.43	741.6
x1 = 0.4682	749.3
x1 = 0.506	757.3
x1 = 0.5357	764
x1 = 0.584	775.6
x1 = 0.6338	788.4
x1 = 0.715	811.7
x1 = 0.7194	813
x1 = 0.7256	814.9
x1 = 0.7698	829
x1 = 0.7996	839.2
x1 = 0.8104	843.3
x1 = 0.8285	850.2
x1 = 0.8537	859.8
x1 = 0.8558	860.5
x1 = 0.8898	874.1
x1 = 0.901	879.1
x1 = 0.9172	885.8
x1 = 0.9284	890.8
x1 = 0.9598	905.6
x1 = 0.9631	907.4
x1 = 0.9735	912.8
x1 = 1	927.1
